Among the test systems are A549; COLO 205; EKVX; HOP-62; LOX IMVI; MDA-MB-231; NCI-H226; NCI-H23; OVCAR-5; OVCAR-8; RXF 393; SF-268; SF-539; SK-OV-3; SNB-19; SW-620; UACC-62; UO-31; A498; SNB-75.
Experiment in all cases: NCI tumour cell line growth inhibition, 48 h

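Protocol summary: plate cells (96-well), add compound at 5 concentrations, incubate 48 h, interpolate endpoints linearly. The concentration for 50% growth inhibition is given as GI50.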 Active and inactive are the calls of the source. Rule as the data show it: active = GI50 up to about 1.1 µM and inactive = higher. Bounds are passed on as bounds.

The source of these data is ChEMBL document CHEMBL1201862, “PubChem BioAssay data set” (2004).

As to `O=C1NC(=S)NC(=O)C1=Cc1ccc(-c2ccccc2)cc1`, the GI50 was > 100 µM (inactive) in the assay with A549; > 100 µM (inactive) in the assay with COLO 205; > 100 µM (inactive) in the assay with EKVX; > 100 µM (inactive) in the assay with HOP-62; 69.3 µM (inactive) with LOX IMVI; 99.8 µM (inactive) in the assay with MDA-MB-231. Besides, the GI50 in the assay with NCI-H226 was > 100 µM (inactive); with NCI-H23 it was > 100 µM (inactive); in the assay on OVCAR-5, > 100 µM (inactive); with OVCAR-8, 49.8 µM (inactive); in the assay with RXF 393 it was 94.4 µM (inactive); in the assay with SF-268, > 100 µM (inactive). Further, the GI50 in the assay with SF-539, in the assay on SK-OV-3, in the assay on SNB-19, with SW-620, in the assay on UACC-62 and with UO-31 was > 100 µM (inactive) in each case.

Turning to `CC[C@@H]1ON(C)[C@H]2CN(C)C(=O)[C@@H]12`, the GI50 in the assay on A549, with COLO 205, in the assay with HOP-62, with LOX IMVI, in the assay with MDA-MB-231 and with NCI-H226 was > 100 µM (inactive) in each case. The GI50 in the assay with NCI-H23, in the assay on OVCAR-5, in the assay with OVCAR-8, in the assay on SK-OV-3, with SNB-19 and in the assay on SW-620 was > 100 µM (inactive) throughout. Moreover, in the assay with UO-31, the GI50 is > 100 µM (inactive).

Regarding `COCOc1ccc(OC)cc1`, the GI50 in the assay with A498, in the assay with A549, in the assay with COLO 205, in the assay on EKVX, in the assay on HOP-62 and with LOX IMVI was > 100 µM (inactive) throughout. In addition, the GI50 in the assay on NCI-H226, with NCI-H23, in the assay on OVCAR-5, in the assay on OVCAR-8, in the assay with RXF 393 and with SF-268 was > 100 µM (inactive) each time. Also, the GI50 in the assay with SF-539, in the assay on SK-OV-3, in the assay with SNB-19, with SNB-75, with SW-620 and in the assay on UACC-62 was > 100 µM (inactive) throughout. Moreover, the GI50 in the assay on UO-31 was > 100 µM (inactive).

On to `O=c1oc2ccc([N+](=O)[O-])cc2cc1-c1csc(-c2ccccc2)n1`, for which the GI50 with A549, in the assay with COLO 205, in the assay with EKVX, in the assay on HOP-62, in the assay on LOX IMVI and with MDA-MB-231 was > 100 µM (inactive) in each case. The GI50 with NCI-H226, with OVCAR-5, in the assay with OVCAR-8, with RXF 393, with SF-268 and in the assay on SF-539 was > 100 µM (inactive) in each case. Moreover, the GI50 in the assay with SK-OV-3 was > 100 µM (inactive); in the assay with SNB-19, > 100 µM (inactive); in the assay with SNB-75, 0.817 µM (active); with SW-620, > 100 µM (inactive); in the assay on UACC-62, > 100 µM (inactive); in the assay with UO-31, > 100 µM (inactive).

Turning to `O=[N+]([O-])c1cc(C(F)(F)F)cc2c1SC1=Nc3ccccc3CN12`, the GI50 in the assay on A498, in the assay on A549, with COLO 205, in the assay with EKVX, with HOP-62 and with LOX IMVI was > 100 µM (inactive) throughout. Moreover, the GI50 with NCI-H226, in the assay with NCI-H23, in the assay with OVCAR-5, with OVCAR-8, in the assay with RXF 393 and with SF-268 was > 100 µM (inactive) in each case. Moreover, the GI50 with SF-539, with SK-OV-3, with SNB-19, with SNB-75, with SW-620 and with UACC-62 was > 100 µM (inactive) throughout. The GI50 in the assay on UO-31 was > 100 µM (inactive).

Regarding `COc1ccc2nc3cc([N+](=O)[O-])ccc3c(Nc3ccc(S(=O)(=O)Nc4ncccn4)cc3)c2c1`, the GI50 in the assay on A549 was > 100 µM (inactive); in the assay with COLO 205 it was 40.3 µM (inactive); in the assay with EKVX, > 100 µM (inactive); with HOP-62 it was > 64.9 µM (inactive); with LOX IMVI, > 73.8 µM (inactive); in the assay with MDA-MB-231, > 60.1 µM (inactive). In addition, the GI50 in the assay on NCI-H226 is 69.3 µM (inactive); with OVCAR-5, > 100 µM (inactive); with OVCAR-8, 45.2 µM (inactive); with RXF 393, > 100 µM (inactive); with SF-268, 40 µM (inactive); in the assay on SF-539 it was > 100 µM (inactive). Further, the GI50 in the assay on SK-OV-3 was > 100 µM (inactive); in the assay on SNB-75, 62.2 µM (inactive); with SW-620 it was > 76.7 µM (inactive); with UACC-62 it was > 65.9 µM (inactive); in the assay on UO-31, 19.4 µM (inactive).

As for `Cn1c2ccccc2c2c3c(c4c5ccccc5n(C)c4c21)C(=O)c1ccccc1C3=O`, the GI50 in the assay with A549 was 59.4 µM (inactive); in the assay with COLO 205, 57.7 µM (inactive); in the assay with EKVX, 44.9 µM (inactive); with HOP-62, 31.1 µM (inactive); with LOX IMVI it was 37.3 µM (inactive); in the assay on MDA-MB-231, 19.6 µM (inactive). Also, the GI50 in the assay with NCI-H226 was > 100 µM (inactive); in the assay with NCI-H23, 18.6 µM (inactive); in the assay on OVCAR-5 it was > 100 µM (inactive); in the assay with OVCAR-8, 40.1 µM (inactive); with RXF 393, 16.3 µM (inactive); in the assay on SF-539, 16.6 µM (inactive). For the same compound, the GI50 in the assay on SK-OV-3 is 48.9 µM (inactive); in the assay with SNB-19, 22.8 µM (inactive); in the assay with SNB-75, 35.3 µM (inactive); in the assay with SW-620, 79.1 µM (inactive); in the assay with UACC-62, 25.9 µM (inactive); in the assay on UO-31, 67.3 µM (inactive).

With `CC1(c2ccc(F)cc2)C(C#N)C(=O)NC(=O)C1C#N` (stereo unspecified), the GI50 with A498 is 41.4 µM (inactive); in the assay with A549 it was > 100 µM (inactive); with COLO 205 it was > 100 µM (inactive); with EKVX, 58.1 µM (inactive); with HOP-62 it was 75.2 µM (inactive); in the assay with LOX IMVI, > 100 µM (inactive). For the same compound, the GI50 with NCI-H226 is > 100 µM (inactive); in the assay on NCI-H23, > 100 µM (inactive); with OVCAR-5, > 100 µM (inactive); with OVCAR-8, > 100 µM (inactive); in the assay on RXF 393 it was 60.1 µM (inactive); in the assay with SF-268, > 100 µM (inactive). Further, the GI50 in the assay with SF-539 is > 100 µM (inactive); in the assay with SK-OV-3 it was > 100 µM (inactive); in the assay on SNB-19 it was > 100 µM (inactive); in the assay with SNB-75, 32.3 µM (inactive); with SW-620, > 100 µM (inactive); with UACC-62, > 100 µM (inactive). Further, the GI50 in the assay on UO-31 was 83.8 µM (inactive).

`O=C1CC(C(COCc2ccccc2)OCc2ccccc2)CC(=O)N1` (stereo unspecified): the GI50 in the assay on A549, in the assay with EKVX, in the assay with HOP-62, in the assay with LOX IMVI, in the assay on MDA-MB-231 and in the assay with NCI-H226 was > 100 µM (inactive) in each case. The GI50 with NCI-H23, in the assay with OVCAR-5, with OVCAR-8, with SF-268, with SF-539 and in the assay with SNB-19 was > 100 µM (inactive) throughout. For the same compound, the GI50 with SW-620 and with UO-31 was > 100 µM (inactive) throughout.

Take `S=C1C=C(c2ccccc2)Sc2ccccc2N1`: the GI50 was > 100 µM (inactive) in the assay with A549; > 100 µM (inactive) in the assay on COLO 205; > 100 µM (inactive) in the assay on EKVX; 41.4 µM (inactive) in the assay on HOP-62; > 100 µM (inactive) in the assay with LOX IMVI; > 100 µM (inactive) in the assay on MDA-MB-231. Besides, the GI50 with NCI-H226 is > 100 µM (inactive); with NCI-H23, > 100 µM (inactive); in the assay with OVCAR-5 it was > 100 µM (inactive); with OVCAR-8, > 100 µM (inactive); in the assay on RXF 393, 8.95 µM (inactive); in the assay with SF-268, > 100 µM (inactive). The GI50 in the assay on SK-OV-3 is > 100 µM (inactive); with SNB-19, > 100 µM (inactive); in the assay with SNB-75, 61.7 µM (inactive); with UACC-62 it was > 100 µM (inactive); in the assay on UO-31, > 100 µM (inactive).

As for `COc1cc(C2c3cc4c(cc3[C@@H](Nc3ccc(F)cc3)C3COC[C@H]23)OCO4)cc(OC)c1O` (stereo partly specified), the GI50 with A549 is 0.451 µM (active); in the assay on COLO 205, 4.73 µM (inactive); with EKVX, 9.91 µM (inactive); with HOP-62, 2.45 µM (inactive); in the assay with MDA-MB-231 it was 2.74 µM (inactive); with OVCAR-5, 3.62 µM (inactive). The GI50 with OVCAR-8 is 2.8 µM (inactive); in the assay with SF-268, 3.85 µM (inactive); in the assay on SF-539 it was 0.75 µM (active); with SK-OV-3, 4.98 µM (inactive); in the assay on SNB-19, 0.885 µM (active); in the assay on SNB-75, 2.77 µM (inactive). The GI50 with SW-620 is 3.15 µM (inactive); in the assay with UO-31, 0.488 µM (active).
